Reference: US9987286B2, “Compositions and methods for the treatment of addiction, psychiatric disorders, and neurodegenerative disease” (Embera NeuroTherapeutics, Inc., priority 2010, dated 2018)

Experiments:
[1] = tested on: cocaine self-administration in rats; experiment: Cocaine self-administration in rats, metyrapol (Example 5); type: in vivo, Adult male Wistar rats; details: metyrapol 25, 50, 100, 150 mg/kg ip 30 minutes before session; cocaine 0.125, 0.25 and 0.5 mg/kg/infusion
Procedure: (§1) We conducted the following experiment to explore the possibility that metyrapol would decrease cocaine self-administration in an animal model. Adult male Wistar rats were trained to respond under a 2-hour multiple, alternating schedule of food reinforcement and cocaine self-administration (fixed-ratio 4) during alternating 15-minute periods. Prior to testing, the rats were exposed to multiple saline substitution and food extinction probes. On test days, rats were pretreated 30 minutes prior to the start of the behavioral session with metyrapol (25, 50, 100, and 150 mg/kg, ip.) or vehicle. Subjects were initially trained and tested with 0.25 mg/kg/infusion of cocaine and, subsequently, with 0.125 and 0.5 mg/kg/infusion.

[2] = tested on: food-maintained responding in rats; experiment: Food-maintained responding in rats, metyrapol (Example 5); type: in vivo, Adult male Wistar rats; details: metyrapol 25, 50, 100, 150 mg/kg ip
Procedure: as §1

plasma CORT = experiment: Plasma CORT radioimmunoassay (Example 1); type: in vivo, Male Wistar rats; details: rats before adrenalectomy; any of the doses
Text: (§2) Blood was collected via the implanted catheters at the end of the behavioral test sessions for the measurement of plasma CORT and […] (ACTH). The samples were kept on ice until centrifuged in a refrigerated centrifuge and the plasma collected and frozen until assayed. Plasma CORT and ACTH (ng/ml) were subsequently determined by radioimmunoassay.

ACTH = experiment: Plasma ACTH radioimmunoassay (Example 1); type: in vivo, Male Wistar rats; details: rats before adrenalectomy; any of the doses
Text: as §2

[3] = tested on: cocaine self-administration in rats; experiment: Ongoing cocaine self-administration in rats (earlier experiments); type: in vivo, rat; details: pretreatment with the single drug
Text: We then reduced the dose by one-half until we found a dose of each drug that no longer affected cocaine self-administration or any other observable behaviors (i.e., an ineffective dose). When we then combined the ineffective doses of the two drugs, cocaine self-administration was reduced. […] Thus, we concluded that combining drugs that affect the HPA axis through different mechanisms can produce an additive effect on cocaine reward. Furthermore, by combining these drugs at concentrations that have no effect when the drugs are administered alone, we can minimize the potential toxic side effects (e.g., excessive decreases in plasma cortisol with metyrapone and the abuse liability of benzodiazepines) that may be associated with these compounds. Accordingly, the compositions of the present invention may include combinations of therapeutic agents, one or both of which are present at a dosage level lower than that which would be required to achieve an effect had the agent been administered alone; the dosages may be additive.

plasma corticosterone = experiment: Plasma corticosterone in rats (earlier experiments); type: in vivo, rat; details: pretreatment with metyrapone
[4] = tested on: cocaine self-administration in rats; experiment: Cocaine self-administration before and after adrenalectomy, alternating schedule of cocaine and food reinforcement (Example 1); type: in vivo, Male Wistar rats; details: rats after bilateral adrenalectomy
Procedure: Male Wistar rats were housed in an AALAC-approved animal care facility and maintained at 85-90% of their free-feeding body weights. These rats were on a reversed 12-hour light, 12-hour dark cycle from the beginning of the experimental procedures.
A chronic indwelling jugular catheter (0.012 in i.d.×0.025 in o.d., silicone tubing) was implanted in each rat under pentobarbital anesthesia (50 mg/kg ip) with methyl atropine nitrate pretreatment (10 mg/kg ip). The animals were injected with sterile penicillin G procaine suspension (75,000 units, im) immediately before surgery and allowed 5-7 days to recover.
Animals were anesthetized with pentobarbital (50 mg/kg ip) with methyl atropine nitrate pretreatment (10 mg/kg ip). The adrenal glands were located through an incision and removed. The animals were injected with sterile penicillin G procaine suspension (75,000 units, im) and allowed to recover from surgery for 7 days. After ADX, the rats received drinking water containing 0.9% saline and 1.0% sucrose. Animals in the SHAM group received the same surgery except that the adrenal glands were not removed. They continued to receive tap water to drink.
Sound-attenuating operant conditioning chambers (Med-Associates, Inc.) were equipped with two response levers and a stimulus light located directly above each lever. A food pellet dispenser was located between the levers. […]

smoking cessation = details: cited from earlier work
[5] = tested on: nicotine self-administration in rats; experiment: Intravenous nicotine self-administration, fixed-ratio schedule (Example 3); type: in vivo, Wistar-derived male rats; details: FR1-TO-20 s; varenicline 1 mg/kg subcutaneously; reduced from 15.4±1.0
Procedure: Wistar-derived male rats (250-300 g) were purchased from Harlan Laboratories (Livermore, Calif.), housed in groups of two, and maintained in a temperature-controlled environment on a 12 h:12 h light cycle. Before testing, animals were provided free access to food and water during a one-week habituation period, and were handled daily for several days to desensitize them to handling stress. Each rat included in the data analysis received all treatments in order to obtain reliable estimates of drug effects and decrease the impact of inter-animal variability.
Varenicline-HCl (Ontario Chemicals), at 1 mg/kg (expressed as free base), was used as a positive control and administered subcutaneously. Nicotine hydrogen tartrate (Sigma Aldrich) was dissolved in isotonic saline at 0.3 mg/mL (expressed as free base), adjusted to pH 7.0, and diluted to deliver 0.03 mg/kg/infusion. All test compounds were administered 30 minutes prior to nicotine self-administration sessions in a volume of 1 mL/kg.
Food training and nicotine self-administration took place in 8 standard COULBOURN® operant conditioning chambers. Each chamber was housed in a sound-attenuating chamber. Operant chambers were equipped with two levers mounted 2 cm above the floor and a cue light mounted 2 cm above the right lever (active lever) on the back wall of the chamber. […]

CC(C)(c1cccnc1)C(O)c1cccnc1 (stereo not shown) [metyrapol]
cocaine self-administration [1]: dose dependently decreased
food-maintained responding [2]: not significantly affected except at the highest doses

CC(C)(C(=O)c1cccnc1)c1cccnc1 [metyrapone]
Corticosterone (plasma) (plasma CORT): not changed
ACTH (plasma) (ACTH): not changed
ongoing cocaine self-administration [3]: significant dose-related decreases
plasma corticosterone (plasma corticosterone): significant dose-related decreases
blocking cocaine self-administration following adrenalectomy compared to pre-adrenalectomy values [4]: as effective, and possibly even more effective

c1cnc2cc3c(cc2n1)[C@@H]1CNC[C@H]3C1 [varenicline]
efficacy for smoking cessation compared to either bupropion or nicotine replacement therapy (smoking cessation; literature reports): increased efficacy
quit rates after one year (smoking cessation; smoking cessation, Nides et al. 2006): 14%
nicotine infusions during the 1-hour self-administration session [5]: 7.7±1.2 infusions
